≈ marks a conversion by molar mass, not a printed value. Where “and” joins values, the source holds several entries; their conditions need not be identical. Equal values may be shown once.
Legend:
Candida albicans = experiment: Synergy with fluconazole, broth microdilution NCCLS M27-A (Table 10); format: cell-based
Protocol: The isolates were subcultured for 24 h on Sabouraud glucose agar before susceptibility testing. Broth microdilution tests were performed according to NCCLS document M27-A (Ref: National Commitee for Clinical Laboratory Standards. (1997). Reference Method for Broth Dilution Antifungal Susceptibility Testing of Yeasts: Approved Standard M27-A. NCCLS, Wayne, Pa.) Microtitre plates were read spectrophotometrically at 530 nm, after mixing the wells by pipetting to resuspend yeast sediments. […] The Fractional Inhibitory Concentration (FIC) was calculated for the anti-infective agent alone and in combination with compound 3 and 4 (see table 4) as described above. Synergy was defined as a FIC index of <0.5.

[1] = tested on: S. aureus MRSA clinical isolates; experiment: FIC index, synergy with antibiotics (Table 4a); format: cell-based, Staphylococcus aureus; conditions: with Dicloxacillin; 8 MRSA; mean; compound at ¼ of MIC
Protocol: (§1) The effect of the compounds was tested according to the methods described in WO2005/105145. In brief, cell growth was tested using the MIC susceptibility tests by use of the microdilution broth method in accordance to the NCCLS Guidelines (NCCLS Guidelines, Methods for Dilution Antimicrobial Susceptibility Tests for Bacteria That Grow Aerobically; Approved Standard, Sixth Edition, Volume 23; Number 2).
(§2) The Fractional Inhibitory Concentration (FIC) index were calculated for each compound as described in WO2005/105145. Synergy was defined for Fractional Inhibitory Concentration (FIC) indices less than 0.5
Staphylococcus aureus: 8 (MRSA) in vivo-selected clinical isolates. Resistant to methicillin and beta-lactam antibiotics. Susceptible to teicoplanin chloramphenicol, fosfomycin, netilmicin and vancomycin.

Enterococci sp. = experiment: MIC on multiresistant and susceptible clinical isolates of Enterococci (Table 2); format: cell-based, Enterococcus faecalis and Enterococcus faecium; conditions: 8 multiresistant (VanA, VanB, HLAR, BLR,CR) and 8 susceptible isolates
Protocol: (§3) Cell growth was tested using the Minimal Inhibitory Concentration (MIC) susceptibility tests by use of the microdilution broth method in accordance to the NCCLS Guidelines (NCCLS Guidelines, Methods for Dilution Antimicrobial Susceptibility Tests for Bacteria That Grow Aerobically; Approved Standard, Sixth Edition, Volume 23; Number 2). The minimum inhibitory concentration (MIC), is defined as the lowest concentration of drug which inhibits growth of the test organism, in the sense that no visible growth is detected (total inhibition of growth). In example 2, MIC of the compounds used on fungal microorgansims was determined from the IC90 measurements according to NCCLS Guidelines.
A log phase culture of bacteria was diluted with fresh pre-warmed Mueller-Hinton medium and adjusted to a defined OD at 600 nm in order to give a final concentration of 1×10^4-5 bacteria/ml medium. The bacterial culture was transferred to microtiter-plates and culture was added to each well. Drug was added to the bacterial culture in the wells as two-fold dilution series of drug in order to give final concentrations ranging from 0.03 to 128 μg/ml. Trays were incubated at 37° C. by shaking in a robot analyzer, PowerWavex, software KC^4′ Kebo. Lab, Copenhagen, for 16 h and optical densities were measured at 600 nm during the incubation time in order to record growth curves. […]

[2] = tested on: Staphylococci, Micrococci. Including MRSA; experiment: MIC on multiresistant and susceptible clinical isolates (Table 1b); format: cell-based; conditions: Micrococci incl. MRSA, 8 multiresistant and 8 susceptible isolates
Protocol: as §3
(§4) A log phase culture of bacteria was diluted with fresh pre-warmed Mueller-Hinton medium and adjusted to a defined OD at 600 nm in order to give a final concentration of 1×10^4-5 bacteria/ml medium. The bacterial culture was transferred to microtiter-plates and culture was added to each well. Drug was added to the bacterial culture in the wells as two-fold dilution series of drug in order to give final concentrations ranging from 0.03 to 128 μg/ml. Trays were incubated at 37° C. by shaking in a robot analyzer, PowerWavex, software KC^4′ Kebo. Lab, Copenhagen, for 16 h and optical densities were measured at 600 nm during the incubation time in order to record growth curves. Wells containing bacterial culture without drug were used as controls to ensure correct inoculum size and bacterial growth during the incubation. Cultures were tested in order to detect contaminations. Each experiment was repeated in triplicate. MIC values represent the mean values of two separate triplicate experiments. Intra- and interassay variation was <5%.
(§5) Clinically relevant human bacterial isolates of Staphylococci, Streptococci, Micrococci and Gram negative species was cultured and assayed as described above for susceptibility towards the compounds listed in table 1b.

Streptococci = experiment: as above; format: cell-based; conditions: 8 multiresistant and 8 susceptible isolates
Protocol: as §3, §4, §5

Gram negative sp. = experiment: as above; format: cell-based; conditions: 8 multiresistant and 8 susceptible isolates
Protocol: as §3, §4, §5

[3] = tested on: Enterococcus faecalis BG VSE-92; experiment: Mouse peritonitis/sepsis model, NMRI mice; format: in vivo; conditions: 3.1 mg/kg s.c.
Protocol: Mouse peritonitis/sepsis model.
A clinical isolate of Enterococcus faecalis BG VSE-92 from human urine was used. This strain is a multiresistant isolate.
Female NMRI mice (age, approximately 6 to 8 weeks; weight, 30±2 g) were used for the mouse […] peritonitis model (as described below).
Bacterial suspensions were prepared from fresh overnight cultures (made from frozen stock cultures) on 5% blood agar plates as described above. The inoculum for the mouse peritonitis model was prepared immediately before use and was adjusted at 540 nm of giving a density of approximately 10^7 CFU/ml. The size of the inoculum was determined by viability counting on 5% blood agar.
The mice were injected intraperitoneally with 0.5 ml of the enterococcal suspension, resulting in bacteremia within 1 h of inoculation. Antibiotic therapy was initiated 1 h after inoculation. N-dealkyl-Trans-clopenthixol was administered subcutaneously in the neck region in a volume of 0.7 ml per dose. Five mice were in each treatment group. Inoculated untreated control mice were included in all trials. (Method reference: Erlandsdottir et al; Antimicrob Agents Chemother. 2001 April; 45(4):1078-85)
The effects of the various treatment regimens were determined during 5 h of treatment by evaluation of bacterial counts in the peritoneal fluid. The bactericidal efficacies of the treatment regimens in the mouse models were calculated by subtracting the results for each treated mouse from the mean results for control mice at the end of therapy (5 h). A decrease of one thousand times (3 log 10 steps) represents maximum effect in this model and sustains strong bacterial killing effect of the compound tested.

Candida species = experiment: MIC on clinical isolates of Candida species, broth microdilution NCCLS M27-A (Table 3); format: cell-based; conditions: Candida species incl. fluconazole resistant; MIC = 90% growth inhibition
Protocol: The antibacterial effect of demethylated/dealkylated phenothiazine or thioxanthene compounds were studied by growth inhibition studies exposing cells to 0-32 μg/ml of drug. Each experiment was repeated in triplicate. MIC values represent the mean values of two separate triplicate experiments.
4 clinical isolates of Candida species (including 3 fluconazole resistant isolates) were subcultured for 24 h on Sabouraud glucose agar before susceptibility testing. Broth microdilution tests were performed according to NCCLS document M27-A (Ref: National Commitee for Clinical Laboratory Standards. (1997). Reference Method for Broth Dilution Antifungal Susceptibility Testing of Yeasts: Approved Standard M27-A. NCCLS, Wayne, Pa.). Microtitre plates were read spectrophotometrically at 530 nm, after mixing the wells by pipetting to resuspend yeast sediments. In this experiment, the MIC was defined as the lowest drug dilution resulting in 90% growth inhibition.

[4] = tested on: E. faecalis MDR/VRE clinical isolates; experiment: FIC index, synergy with antibiotics (Table 4a); format: cell-based, Enterococcus faecalis; conditions: 8 MDR/VRE E. faecalis, mean, compound at ¼ of MIC
Protocol: as §1, §2
Enterococcus faecalis: 8 multidrug resistant in vivo-selected clinical isolates. […] Expressing change in the cell wall precursor target as a major resistance mechanism (VanA gene expression).

Work on `Clc1ccc2c(c1)/C(=C/CCC1CCNCC1)c1ccccc1S2` [Compound 3] yielded an MIC (Candida albicans; Candida albicans, compound alone, read-out: MIC Compound) of 1 µg/mL, an FIC index (Candida albicans; in combination with fluconazole) of 0.28 and an FIC index [1] of 0.25. The “MIC Mean (range)” value (Enterococci sp.) was 0.125 (0.06-0.125) μ/ml, the “MIC Mean” value [2] was 0.25 µg/mL (≈ 0.702 µM) and the “MIC Mean” value (Streptococci) was 0.25 µg/mL (≈ 0.702 µM). The “MIC Mean” value (Gram negative sp.) was 3 µg/mL (≈ 8.43 µM), the “Decrease of number of bacteria per ml of peritoneal fluid” value ([3]; 5 hours, vs control) was 3 log 10 steps and the “Bacteria survived after 5 hours” value ([3]; p<0.05) was 0.001%. For the same compound, the CFU/ml - peritoneum ([3]; treatment 0 and 1 hour, sampling 5 hours, individual mice) was 2.05E+06 CFU/ml and 2.90E+06 CFU/ml and 4.25E+06 CFU/ml, the “MIC Mean (range)” value (Candida species) was 1.0 (0.25-2.0) μ/ml and the FIC index ([4]; with Ciprofloxacin) was 0.25. It also gave an FIC index ([4]; with Dicloxacillin) of 0.25.
